Converted amounts (≈) assume the structure as drawn.

What all share (assay type): cell-based
Test [1] concerns Staphylococcus aureus ATCC29213. The experiment in a line: MIC, microbroth dilution (NCCLS). Conditions: rifS strain, Cation-Adjusted Mueller-Hinton Broth, 37° C., read-out: MIC.
For test [2], the system named is Staphylococcus aureus ATCC29213 rpoB^H418Y. The experiment in a line: microbe, parasite or virus in culture. Conditions: Staphylococcus aureus, ATCC29213; rifR strain; Cation-Adjusted Mueller-Hinton Broth, 37° C.; read-out: MIC.
Test [3] concerns Staphylococcus aureus MT1222 gyrA^A116E grlB^S80F. Nature of the test: microbe, parasite or virus in culture. Conditions: cipR strain, Cation-Adjusted Mueller-Hinton Broth, 37° C., read-out: MIC.
For test [4], the system named is Staphylococcus epidermidis ATCC12228. Nature of the test: MIC, microbroth dilution (NCCLS). Conditions: rifS strain, Cation-Adjusted Mueller-Hinton Broth, 37° C., read-out: MIC.
The test system of test [5] is Streptococcus pneumoniae ATCC6303. Nature of the test: MIC, microbroth dilution (NCCLS). Conditions: rifS strain, THY Broth with 1 mg/mL catalase, 5% CO2, 37° C., read-out: MIC. In general terms: In broth dilution the organism is exposed to a series of concentrations in liquid medium.
Test [6] relates to Streptococcus pyogenes ATCC19615. Nature of the test: MIC, microbroth dilution (NCCLS). Conditions: rifS strain, THY Broth, 37° C., read-out: MIC.
Test [7] has as its system Haemophilus influenzae ATCC10211. Nature of the test: MIC, microbroth dilution (NCCLS). Conditions: rifS strain, BHI Broth with NAD and hematin, 37° C., read-out: MIC.

Take `COc1c(N2CCCC(N/N=C/c3c4c(O)c5c(O)c(C)c6c(c5c3O)C(=O)[C@@](C)(O/C=C/[C@H](OC)[C@@H](C)[C@@H](OC(C)=O)[C@H](C)[C@H](O)[C@H](C)[C@@H](O)[C@@H](C)/C=C/C=C(/C)C(=O)N4)O6)C2)c(F)cc2c(=O)c(C(=O)O)cn(C3CC3)c12` (mixture of isomers) [Example 24, (R/S)-3-[1-(3-Carboxy-1-cyclopropyl-6-fluoro-8-methoxy-4-oxo-1,4-dihydroquinolin-7-yl)-piperidin-3-hydrazino-methylenyl]-rifamycin SV]: the MIC in test [1] fell in the range of 0.008 to 1 µg/mL (≈ 0.00728 to 0.911 µM); in test [2], 0.06 to 16 µg/mL (≈ 0.0546 to 14.6 µM); in test [3], 0.008 to 0.125 µg/mL (≈ 0.00728 to 0.114 µM); in test [4] it was 0.008 to 0.1 µg/mL (≈ 0.00728 to 0.0911 µM); in test [5], 0.008 to 0.06 µg/mL (≈ 0.00728 to 0.0546 µM); in test [6], 0.008 to 0.03 µg/mL (≈ 0.00728 to 0.0273 µM). Besides, in test [7], the MIC was 0.125 to 4 µg/mL (≈ 0.114 to 3.64 µM).

As to `CO[C@H]1/C=C/O[C@@]2(C)Oc3c(C)c(O)c4c(O)c(c(/C=N/N(C)C5CCN(c6cc7c(cc6F)c(=O)c(C(=O)O)cn7C6CC6)C5)c(O)c4c3C2=O)NC(=O)/C(C)=C\C=C\[C@H](C)[C@H](O)[C@@H](C)[C@@H](O)[C@@H](C)[C@H](OC(C)=O)[C@@H]1C` (mixture of isomers) [Example 15, (R/S)-3-[1-(3-Carboxy-1-cyclopropyl-6-fluoro-4-oxo-1,4-dihydroquinolin-7-yl)-pyrrolidin-3-yl-N′-methylhydrazinomethylenyl]rifamycin SV], the MIC fell in the range of 0.008 to 1 µg/mL (≈ 0.00749 to 0.936 µM) in test [1]; 0.06 to 16 µg/mL (≈ 0.0562 to 15 µM) in test [2]; 0.008 to 0.125 µg/mL (≈ 0.00749 to 0.117 µM) in test [3]; 0.008 to 0.1 µg/mL (≈ 0.00749 to 0.0936 µM) in test [4]; 0.008 to 0.06 µg/mL (≈ 0.00749 to 0.0562 µM) in test [5]; 0.008 to 0.03 µg/mL (≈ 0.00749 to 0.0281 µM) in test [6]. In addition, the MIC in test [7] fell in the range of 0.125 to 4 µg/mL (≈ 0.117 to 3.74 µM).

For the compound `CO[C@H]1/C=C/O[C@@]2(C)Oc3c(C)c(O)c4c(O)c(c(/C=N/N5CCN(C6CCN(c7nc8c(cc7F)c(=O)c(C(=O)O)cn8-c7ccc(F)cc7F)C6)CC5)c(O)c4c3C2=O)NC(=O)/C(C)=C\C=C\[C@H](C)[C@H](O)[C@@H](C)[C@@H](O)[C@@H](C)[C@H](OC(C)=O)[C@@H]1C` (mixture of isomers) [Example 34], the MIC in test [1] lay in the range of 0.008 to 1 µg/mL (≈ 0.00669 to 0.836 µM); in test [2] it was 0.06 to 16 µg/mL (≈ 0.0502 to 13.4 µM); in test [3], 0.008 to 0.125 µg/mL (≈ 0.00669 to 0.104 µM); in test [4], 0.008 to 0.1 µg/mL (≈ 0.00669 to 0.0836 µM); in test [5], 0.008 to 0.06 µg/mL (≈ 0.00669 to 0.0502 µM); in test [6], 0.008 to 0.03 µg/mL (≈ 0.00669 to 0.0251 µM). Besides, the MIC in test [7] was in the range of 0.125 to 4 µg/mL (≈ 0.104 to 3.34 µM).

Regarding `CO[C@H]1/C=C/O[C@@]2(C)Oc3c(C)c(O)c4c(c3C2=O)C(=O)C(/C=N/N2CCN(c3nc5c(cc3F)c(=O)c(C(=O)O)cn5-c3ccc(F)cc3F)CC2)=C(NC(=O)/C(C)=C\C=C\[C@H](C)[C@H](O)[C@@H](C)[C@@H](O)[C@@H](C)[C@H](OC(C)=O)[C@@H]1C)C4=O` [Example 10, 3-[4-[3-Carboxy-1-(2,4-difluoro-phenyl)-6-fluoro-4-oxo-1,4-dihydro-[1,8]naphthyridine-7-yl]-piperazin-1-ylaminomethylenyl]rifamycin S], the MIC lay within 0.008 to 1 µg/mL (≈ 0.00711 to 0.889 µM) in test [1]; 0.06 to 16 µg/mL (≈ 0.0533 to 14.2 µM) in test [2]; 0.008 to 0.125 µg/mL (≈ 0.00711 to 0.111 µM) in test [3]; 0.008 to 0.1 µg/mL (≈ 0.00711 to 0.0889 µM) in test [4]; 0.008 to 0.06 µg/mL (≈ 0.00711 to 0.0533 µM) in test [5]; 0.008 to 0.03 µg/mL (≈ 0.00711 to 0.0267 µM) in test [6]. The MIC in test [7] is 0.125 to 4 µg/mL (≈ 0.111 to 3.56 µM).

For `CCn1cc(C(=O)O)c(=O)c2cc(F)c(N3CCN(/N=C/c4c5c(O)c6c(O)c(C)c7c(c6c4O)C(=O)[C@@](C)(O/C=C/[C@H](OC)[C@@H](C)[C@@H](OC(C)=O)[C@H](C)[C@H](O)[C@H](C)[C@@H](O)[C@@H](C)/C=C/C=C(/C)C(=O)N5)O7)C(C)C3)c(F)c21` (mixture of isomers) [Example 8, (R/S)-3-[4-(3-Carboxy-1-ethyl-6,8-difluoro-8-4-oxo-1,4-dihydroquinolin-7-yl)-2-methyl-piperazin-1-yl-aminomethylenyl]rifamycin SV], the MIC in test [1] lay within 0.008 to 1 µg/mL (≈ 0.00745 to 0.931 µM); in test [2], 0.06 to 16 µg/mL (≈ 0.0559 to 14.9 µM); in test [3], 0.008 to 0.125 µg/mL (≈ 0.00745 to 0.116 µM); in test [4], 0.008 to 0.1 µg/mL (≈ 0.00745 to 0.0931 µM); in test [5] it was 0.008 to 0.06 µg/mL (≈ 0.00745 to 0.0559 µM); in test [6] it was 0.008 to 0.03 µg/mL (≈ 0.00745 to 0.0279 µM). Further, the MIC in test [7] is 0.125 to 4 µg/mL (≈ 0.116 to 3.72 µM).

Turning to `COc1c(N2CC3CCCN(/N=C/C4=C5NC(=O)/C(C)=C\C=C\[C@H](C)[C@H](O)[C@@H](C)[C@@H](O)[C@@H](C)[C@H](OC(C)=O)[C@H](C)[C@@H](OC)/C=C/O[C@@]6(C)Oc7c(C)c(O)c(c(c7C6=O)C4=O)C5=O)C3C2)c(F)cc2c(=O)c(C(=O)O)cn(C3CC3)c12` (stereo partly drawn) [Example 13, 3-[6-(3-Carboxy-1-cyclopropyl-6-fluoro-8-methoxy-4-oxo-1,4-dihydroquinolin-7-yl)-octahydropyrrolo[3,4-b]pyridin-1-yl-aminomethylenyl]rifamycin S], the MIC in test [1] is 0.008 to 1 µg/mL (≈ 0.00713 to 0.891 µM); in test [2], 0.06 to 16 µg/mL (≈ 0.0535 to 14.3 µM); in test [3] it was 0.008 to 0.125 µg/mL (≈ 0.00713 to 0.111 µM); in test [4], 0.008 to 0.1 µg/mL (≈ 0.00713 to 0.0891 µM); in test [5], 0.008 to 0.06 µg/mL (≈ 0.00713 to 0.0535 µM); in test [6] it was 0.008 to 0.03 µg/mL (≈ 0.00713 to 0.0267 µM). Besides, the MIC in test [7] is 0.125 to 4 µg/mL (≈ 0.111 to 3.56 µM).

Regarding `COc1c(N2CCC(NC3CCN(/N=C/c4c5c(O)c6c(O)c(C)c7c(c6c4O)C(=O)[C@@](C)(O/C=C/[C@H](OC)[C@@H](C)[C@@H](OC(C)=O)[C@H](C)[C@H](O)[C@H](C)[C@@H](O)[C@@H](C)/C=C/C=C(/C)C(=O)N5)O7)CC3)C2)c(F)cc2c(=O)c(C(=O)O)cn(C3CC3)c12` (mixture of isomers) [Example 26, (R/S)-3-{4-[1-(3-Carboxy-1-cyclopropyl-6-fluoro-8-methoxy-4-oxo-1,4-dihydroquinolin-7-yl)-pyrrolidin-3-ylamino]-piperidin-1-yl-aminomethylenyl}-rifamycin SV], the MIC fell in the range of 0.008 to 1 µg/mL (≈ 0.00685 to 0.857 µM) in test [1]; 0.06 to 16 µg/mL (≈ 0.0514 to 13.7 µM) in test [2]; 0.008 to 0.125 µg/mL (≈ 0.00685 to 0.107 µM) in test [3]; 0.008 to 0.1 µg/mL (≈ 0.00685 to 0.0857 µM) in test [4]; 0.008 to 0.06 µg/mL (≈ 0.00685 to 0.0514 µM) in test [5]; 0.008 to 0.03 µg/mL (≈ 0.00685 to 0.0257 µM) in test [6]. The MIC in test [7] was in the range of 0.125 to 4 µg/mL (≈ 0.107 to 3.43 µM).

For `COc1c(N2CCC(C3(NC4CCN(/N=C/c5c6c(O)c7c(O)c(C)c8c(c7c5O)C(=O)[C@@](C)(O/C=C/[C@H](OC)[C@@H](C)[C@@H](OC(C)=O)[C@H](C)[C@H](O)[C@H](C)[C@@H](O)[C@@H](C)/C=C/C=C(/C)C(=O)N6)O8)CC4)CC3)C2)c(F)cc2c(=O)c(C(=O)O)cn(C3CC3)c12` (mixture of isomers) [Example 46], the MIC in test [1] lay within 0.008 to 1 µg/mL (≈ 0.00663 to 0.828 µM); in test [2], 0.06 to 16 µg/mL (≈ 0.0497 to 13.3 µM); in test [3], 0.008 to 0.125 µg/mL (≈ 0.00663 to 0.104 µM); in test [4] it was 0.008 to 0.1 µg/mL (≈ 0.00663 to 0.0828 µM); in test [5], 0.008 to 0.06 µg/mL (≈ 0.00663 to 0.0497 µM); in test [6], 0.008 to 0.03 µg/mL (≈ 0.00663 to 0.0248 µM). Further, the MIC in test [7] was in the range of 0.125 to 4 µg/mL (≈ 0.104 to 3.31 µM).

With `CO[C@H]1/C=C/O[C@@]2(C)Oc3c(C)c(O)c4c(O)c(c(/C=N/N5CCC(N(C)C6(C7CCN(c8c(F)cc9c(=O)c(C(=O)O)cn(C%10CC%10)c9c8Cl)C7)CC6)CC5)c(O)c4c3C2=O)NC(=O)/C(C)=C\C=C\[C@H](C)[C@H](O)[C@@H](C)[C@@H](O)[C@@H](C)[C@H](OC(C)=O)[C@@H]1C` (mixture of isomers) [Example 17, (R/S)-3-{[4-({1-[1-(3-Carboxy-8-chloro-1-cyclopropyl-6-fluoro-4-oxo-1,4-dihydro-quinolin-7-yl)-pyrrolidin-3-yl]-cyclopropyl}-methyl-amino)-piperidin-1-ylimino]-methyl}-rifamycin SV], the MIC in test [1] fell in the range of 0.008 to 1 µg/mL (≈ 0.00653 to 0.816 µM); in test [2], 0.06 to 16 µg/mL (≈ 0.0489 to 13.1 µM); in test [3], 0.008 to 0.125 µg/mL (≈ 0.00653 to 0.102 µM); in test [4], 0.008 to 0.1 µg/mL (≈ 0.00653 to 0.0816 µM); in test [5], 0.008 to 0.06 µg/mL (≈ 0.00653 to 0.0489 µM); in test [6], 0.008 to 0.03 µg/mL (≈ 0.00653 to 0.0245 µM). Further, in test [7], the MIC fell in the range of 0.125 to 4 µg/mL (≈ 0.102 to 3.26 µM).

Source of the values: US7238694B2, “Rifamycin imino derivatives effective against drug-resistant microbes” (Cumbre Pharmaceuticals, Inc., priority 2004, dated 2007).
